Values after ≈ are worked out from the molar mass of the structure shown.
Experiments:
Rhinovirus 39 = assay: Anti-rhinovirus activity, cytopathic effect inhibition / neutral red dye uptake, type 39; type: cell-based; conditions: Table I, WI38 cells, 33° C., 3-4 days; for EC50: Enterovirus, WI-38, read-out: MIC50 Rhinovirus 39
WI38 cells = assay: Toxicity to WI38 cells (change in morphology in / growth inhibition of 25% of the cells); type: cell-based
HRV-1A and HRV-39 = assay: Anti-rhinovirus activity against HRV-1A and HRV-39; conditions: in words
Rhinovirus 1A = assay: Anti-rhinovirus activity, cytopathic effect inhibition / neutral red dye uptake, type 1A; type: cell-based; conditions: Table I, WI38 cells, 33° C., 3-4 days, NA = Not active; for EC50: Enterovirus, WI-38, read-out: MIC50 Rhinovirus 1A
[1] = tested on: 20 serotypes of rhinovirus; assay: Anti-rhinovirus activity against a panel of 20 serotypes; conditions: Table II; numerator; denominator 20, but 10 for compound 8 and 6 for compound 30
Rhinovirus 36 = assay: Anti-rhinovirus activity, cytopathic effect inhibition / neutral red dye uptake, type 36; type: cell-based; conditions: Enterovirus, WI-38; Table II; read-out: MIC 50 Rhinovirus Type 36
Coxsacki-A21 = assay: Activity against other picornaviruses, Coxsacki-A21; type: cell-based; conditions: Enterovirus, read-out: MIC 50 Cox. A21
Rhinovirus 17 = assay: Anti-rhinovirus activity, cytopathic effect inhibition / neutral red dye uptake, type 17; type: cell-based; conditions: Enterovirus, WI-38; Table II; read-out: MIC 50 Rhinovirus Type 17
Echo-7 = assay: Activity against other picornaviruses, Echo-7; type: cell-based; conditions: Enterovirus, read-out: MIC 50 Echo 7
Polio 1 = assay: microbe, parasite or virus in culture; type: cell-based; conditions: Enterovirus, read-out: MIC 50 Polio 1
Rhinovirus 86 = assay: Anti-rhinovirus activity, cytopathic effect inhibition / neutral red dye uptake, type 86; type: cell-based; conditions: Enterovirus, WI-38; Table II; read-out: MIC 50 Rhinovirus Type 86
Coxsacki-B1 = assay: Activity against other picornaviruses, Coxsacki-B1; type: cell-based; conditions: Enterovirus, read-out: MIC 50 Cox. B1
Rhinovirus 31 = assay: Anti-rhinovirus activity, cytopathic effect inhibition / neutral red dye uptake, type 31; type: cell-based; conditions: Enterovirus, WI-38; Table II; one of seven commonest serotypes; read-out: MIC 50 Rhinovirus Type 31
Rhinovirus 1B = assay: Anti-rhinovirus activity, cytopathic effect inhibition / neutral red dye uptake, type 1B; type: cell-based; conditions: Enterovirus, WI-38; Table II; one of seven commonest serotypes; read-out: MIC 50 Rhinovirus Type 1B
Rhinovirus 29 = assay: Anti-rhinovirus activity, cytopathic effect inhibition / neutral red dye uptake, type 29; type: cell-based; conditions: Enterovirus, WI-38; Table II; one of seven commonest serotypes; read-out: MIC 50 Rhinovirus Type 29
Enterovirus serotypes = type: cell-based; conditions: Table III; numerator; denominator 7, but 5 for compound 8
Echo-11 = assay: Activity against other picornaviruses, Echo-11; type: cell-based; conditions: Enterovirus, read-out: MIC 50 Echo 11
Rhinovirus 4 = assay: Anti-rhinovirus activity, cytopathic effect inhibition / neutral red dye uptake, type 4; type: cell-based; conditions: Enterovirus, WI-38; Table II; one of seven commonest serotypes; read-out: MIC 50 Rhinovirus Type 4
Rhinovirus 15 = assay: Anti-rhinovirus activity, cytopathic effect inhibition / neutral red dye uptake, type 15; type: cell-based; conditions: Enterovirus, WI-38; Table II; one of seven commonest serotypes; read-out: MIC 50 Rhinovirus Type 15
[2] = Table I, concentration with change in morphology in 25% of WI38 cells

Cc1cc(CCCCCCCOC2c3ccccc3-c3ccccc32)on1 [Compound 29, 5-[7-(fluorene-9-yloxy)-heptyl]-3-methylisoxazole]
EC50 (Rhinovirus 39): 25 µg/mL (≈ 69.2 µM)
Toxicity (WI38 cells; [2]): > 50 µg/mL

Cc1cc(OCCCCCCc2ccns2)c2ccccc2n1 [Compound 26, 5-[6-(2-methylquinoline-4-yl)oxyhexyl]isothiazole]
inhibitory activity against HRV-1A and HRV-39 in vitro (HRV-1A and HRV-39): remarkably inhibitory activity

5-[7-(2-Naphthyl)oxyheptyl]-3-methylthiazole [Compound 18]
MIC50 Rhinovirus 39 (Rhinovirus 39): 25 µg/mL
Toxicity (WI38 cells; [2]): > 50 µg/mL
MIC50 Rhinovirus 1A (Rhinovirus 1A): 25 µg/mL

Cc1cc(CCCCCCCOc2cc(C)c3ccccc3n2)on1 [Compound 10, 5-[7-(4-methylquinolin-2-yl)oxyheptyl]-3-methylisoxazole]
EC50 (Rhinovirus 39): 25 µg/mL (≈ 73.9 µM)
Toxicity (WI38 cells; [2]): 50 µg/mL
EC50 (Rhinovirus 1A): 25 µg/mL (≈ 73.9 µM)

Cc1cc(OCCCCCCc2sncc2C)c2ccccc2n1 [Compound 20, 5-[6-(2-methylquinolin-4-yl)oxyhexyl]-4-methylisothiazole]
inhibitory activity against HRV-1A and HRV-39 in vitro (HRV-1A and HRV-39): remarkably inhibitory activity

Cc1cc(CCCCCCCOc2ccc3c(c2)[nH]c2ccccc23)on1 [Compound 8, 5-[7-(carbazol-2-yl)oxyheptyl]-3-methylisoxazole]
All Rhinovirus Serotypes (number of serotypes active / tested) [1]: 4
EC50 (Rhinovirus 36): > 25 µg/mL
IC50 (Coxsacki-A21): > 25 µg/mL
IC50 (Rhinovirus 17): > 25 µg/mL
IC50 (Echo-7): > 25 µg/mL
EC50 (Polio 1): > 25 µg/mL
EC50 (Rhinovirus 39): 10 µg/mL (≈ 27.6 µM)
EC50 (Rhinovirus 86): > 25 µg/mL
Toxicity (WI38 cells; [2]): 25 µg/mL
Toxicity (WI38 cells; Table II): 25 µg/mL
Toxicity (WI38 cells; Table III): 25 µg/mL
IC50 (Coxsacki-B1): > 25 µg/mL
EC50 (Rhinovirus 31): 1 µg/mL (≈ 2.76 µM)
IC50 (Rhinovirus 1B): 5 µg/mL (≈ 13.8 µM)
IC50 (Rhinovirus 29): > 25 µg/mL
All Enterovirus Serotypes (number of serotypes active / tested) (Enterovirus serotypes): 0
IC50 (Echo-11): > 25 µg/mL
IC50 (Rhinovirus 4): > 25 µg/mL
IC50 (Rhinovirus 15): > 25 µg/mL
inhibitory activity against HRV-1A and HRV-39 in vitro (HRV-1A and HRV-39): remarkably inhibitory activity
EC50 (Rhinovirus 1A): 10 µg/mL (≈ 27.6 µM)

Cc1cc(CCCCCCCOC23CC4CC(CC(C4)C2)C3)on1 [Compound 12, 5-[7-(Adamantanol-1-yl)oxyheptyl]-3-methylisoxazole]
EC50 (Rhinovirus 39): 10 µg/mL (≈ 30.2 µM)
Toxicity (WI38 cells; [2]): 50 µg/mL
EC50 (Rhinovirus 1A): 25 µg/mL (≈ 75.4 µM)

Cc1cc(CCCCCCCON2C(=O)COc3c2ccc2ccccc32)on1 [Compound 6, 5-[7-(2,3-dihydro-3-oxo-4H-napth[1,2-b]-1,4-oxazin-4-yl)oxyheptyl]-3-methylisoxazole]
EC50 (Rhinovirus 39): 50 µg/mL (≈ 127 µM)
Toxicity (WI38 cells; [2]): > 50 µg/mL
inhibitory activity against HRV-1A and HRV-39 in vitro (HRV-1A and HRV-39): remarkably inhibitory activity
EC50 (Rhinovirus 1A): 50 µg/mL (≈ 127 µM)

Cc1cc(CCCCCCCOc2ccc(-n3cncn3)cc2)on1 [Compound 3, 5-{7-[4-(1,2,4-triazol-1-yl)phenoxy]heptyl}-3-methylisoxazole]
EC50 (Rhinovirus 39): 50 µg/mL (≈ 147 µM)
Toxicity (WI38 cells; [2]): 750 µg/mL
inhibitory activity against HRV-1A and HRV-39 in vitro (HRV-1A and HRV-39): remarkably inhibitory activity
EC50 (Rhinovirus 1A): 50 µg/mL (≈ 147 µM)

Cc1cc(OCCCCCCc2c(Cl)cnn2-c2ccccc2)c2ccccc2n1 [Compound 35, 4-chloro-5-[6-(2-methylqinolin-4-yl)oxyhexyl]phenylpyrazole]
inhibitory activity against HRV-1A and HRV-39 in vitro (HRV-1A and HRV-39): remarkably inhibitory activity

Cc1cc(CCCCCCCOc2nc3ccccc3[nH]2)on1 [Compound 11, 5-[7-(benzimidazol-2-yl)oxyheptyl]-3-methylisoxazole]
EC50 (Rhinovirus 39): 10 µg/mL (≈ 31.9 µM)
Toxicity (WI38 cells; [2]): 50 µg/mL
EC50 (Rhinovirus 1A): 25 µg/mL (≈ 79.8 µM)

Cc1cnsc1CCCCCCOc1cccc2ccccc12
inhibitory activity against HRV-1A and HRV-39 in vitro (HRV-1A and HRV-39): remarkably inhibitory activity

c1ccc(-n2nccc2CCCCCCOc2ccc3ccccc3c2)cc1 [Compound 32, 5-[6-(2-naphthyl)-oxyhexyl]-1-phenylpyrazole]
EC50 (Rhinovirus 39): 25 µg/mL (≈ 67.5 µM)
Toxicity (WI38 cells; [2]): 50 µg/mL
inhibitory activity against HRV-1A and HRV-39 in vitro (HRV-1A and HRV-39): remarkably inhibitory activity
EC50 (Rhinovirus 1A): 25 µg/mL (≈ 67.5 µM)

5-[7-(fluoren-9-yl)oxyheptyl]-3-methylthiazole
inhibitory activity against HRV-1A and HRV-39 in vitro (HRV-1A and HRV-39): remarkably inhibitory activity

Cc1cnsc1CCCCCCOc1cccc2ccccc12 [Compound 22, 5-[6-(1-napthyl)oxyhexyl]-4-methylisothiazole]
EC50 (Rhinovirus 39): 25 µg/mL (≈ 76.8 µM)
Toxicity (WI38 cells; [2]): > 50 µg/mL
EC50 (Rhinovirus 1A): 25 µg/mL (≈ 76.8 µM)

c1ccc(-n2nccc2CCCCCCOc2cccc3ccccc23)cc1 [Compound 33, 5-[6-(1-naphthyl)oxyhexyl]-1-phenylpyrazole]
inhibitory activity against HRV-1A and HRV-39 in vitro (HRV-1A and HRV-39): remarkably inhibitory activity

c1ccc(-n2nccc2CCCCCCOc2ccc3oc4ccccc4c3c2)cc1 [Compound 30]
All Rhinovirus Serotypes (number of serotypes active / tested) [1]: 5
EC50 (Rhinovirus 39): 5 µg/mL (≈ 12.2 µM)
Toxicity (WI38 cells; [2]): > 50 µg/mL
Toxicity (WI38 cells; Table II): > 50 µg/mL
EC50 (Rhinovirus 31): > 25 µg/mL
IC50 (Rhinovirus 1B): 10 µg/mL (≈ 24.4 µM)
IC50 (Rhinovirus 4): 10 µg/mL (≈ 24.4 µM)
IC50 (Rhinovirus 15): 5 µg/mL (≈ 12.2 µM)
inhibitory activity against HRV-1A and HRV-39 in vitro (HRV-1A and HRV-39): remarkably inhibitory activity
EC50 (Rhinovirus 1A): 10 µg/mL (≈ 24.4 µM)

Cc1cc(CCCCCCCOc2cccc3ccccc23)on1 [Compound 14, 5-[7-(1-naphthyl)oxyheptyl]-3-methylisoxazole]
EC50 (Rhinovirus 39): 25 µg/mL (≈ 77.3 µM)
Toxicity (WI38 cells; [2]): > 50 µg/mL
inhibitory activity against HRV-1A and HRV-39 in vitro (HRV-1A and HRV-39): remarkably inhibitory activity
EC50 (Rhinovirus 1A): 25 µg/mL (≈ 77.3 µM)

Cc1cc(CCCCCCCOc2ccc3ccccc3c2)on1 [Compound 13, 5-[7-(2-naphthyl)oxyheptyl]-3-methylisoxazole]
EC50 (Rhinovirus 39): 10 µg/mL (≈ 30.9 µM)
Toxicity (WI38 cells; [2]): 50 µg/mL
inhibitory activity against HRV-1A and HRV-39 in vitro (HRV-1A and HRV-39): remarkably inhibitory activity
EC50 (Rhinovirus 1A): 25 µg/mL (≈ 77.3 µM)

Cc1cc(OCCCCCCc2ccnn2-c2ccccc2)c2ccccc2n1 [Compound 31, 5-[6-(2-methylquinolin-4-yl)oxyhexyl]-1-phenylpyrazole]
EC50 (Rhinovirus 39): 10 µg/mL (≈ 25.9 µM)
Toxicity (WI38 cells; [2]): 25 µg/mL
inhibitory activity against HRV-1A and HRV-39 in vitro (HRV-1A and HRV-39): remarkably inhibitory activity
EC50 (Rhinovirus 1A): 10 µg/mL (≈ 25.9 µM)

Cc1csc(CCCCCCCOc2cc(C)nc3ccccc23)n1 [Compound 16]
EC50 (Rhinovirus 39): 5 µg/mL (≈ 14.1 µM)
Toxicity (WI38 cells; [2]): 25 µg/mL
inhibitory activity against HRV-1A and HRV-39 in vitro (HRV-1A and HRV-39): remarkably inhibitory activity

Cc1cnsc1CCCCCCOc1ccc2ccccc2c1 [Compound 21, 5-[6-(2-napthyl)oxyhexyl]-4-methylisothiazole]
EC50 (Rhinovirus 39): 10 µg/mL (≈ 30.7 µM)
Toxicity (WI38 cells; [2]): 50 µg/mL
EC50 (Rhinovirus 1A): 25 µg/mL (≈ 76.8 µM)

Source: patent US5026848A, “Novel generation of heteroaryloxyalkyl heterocycles with antipicornaviruses activities” (Synphar Laboratories Incorporated, priority 1988, dated 1991)
